Consider 29 molecules from patent US10758534B2 (Vertex Pharmaceuticals Incorporated, priority 2014, dated 2020).

T1 sequence (P13569 with tags, fused parts or gaps DEL508-508): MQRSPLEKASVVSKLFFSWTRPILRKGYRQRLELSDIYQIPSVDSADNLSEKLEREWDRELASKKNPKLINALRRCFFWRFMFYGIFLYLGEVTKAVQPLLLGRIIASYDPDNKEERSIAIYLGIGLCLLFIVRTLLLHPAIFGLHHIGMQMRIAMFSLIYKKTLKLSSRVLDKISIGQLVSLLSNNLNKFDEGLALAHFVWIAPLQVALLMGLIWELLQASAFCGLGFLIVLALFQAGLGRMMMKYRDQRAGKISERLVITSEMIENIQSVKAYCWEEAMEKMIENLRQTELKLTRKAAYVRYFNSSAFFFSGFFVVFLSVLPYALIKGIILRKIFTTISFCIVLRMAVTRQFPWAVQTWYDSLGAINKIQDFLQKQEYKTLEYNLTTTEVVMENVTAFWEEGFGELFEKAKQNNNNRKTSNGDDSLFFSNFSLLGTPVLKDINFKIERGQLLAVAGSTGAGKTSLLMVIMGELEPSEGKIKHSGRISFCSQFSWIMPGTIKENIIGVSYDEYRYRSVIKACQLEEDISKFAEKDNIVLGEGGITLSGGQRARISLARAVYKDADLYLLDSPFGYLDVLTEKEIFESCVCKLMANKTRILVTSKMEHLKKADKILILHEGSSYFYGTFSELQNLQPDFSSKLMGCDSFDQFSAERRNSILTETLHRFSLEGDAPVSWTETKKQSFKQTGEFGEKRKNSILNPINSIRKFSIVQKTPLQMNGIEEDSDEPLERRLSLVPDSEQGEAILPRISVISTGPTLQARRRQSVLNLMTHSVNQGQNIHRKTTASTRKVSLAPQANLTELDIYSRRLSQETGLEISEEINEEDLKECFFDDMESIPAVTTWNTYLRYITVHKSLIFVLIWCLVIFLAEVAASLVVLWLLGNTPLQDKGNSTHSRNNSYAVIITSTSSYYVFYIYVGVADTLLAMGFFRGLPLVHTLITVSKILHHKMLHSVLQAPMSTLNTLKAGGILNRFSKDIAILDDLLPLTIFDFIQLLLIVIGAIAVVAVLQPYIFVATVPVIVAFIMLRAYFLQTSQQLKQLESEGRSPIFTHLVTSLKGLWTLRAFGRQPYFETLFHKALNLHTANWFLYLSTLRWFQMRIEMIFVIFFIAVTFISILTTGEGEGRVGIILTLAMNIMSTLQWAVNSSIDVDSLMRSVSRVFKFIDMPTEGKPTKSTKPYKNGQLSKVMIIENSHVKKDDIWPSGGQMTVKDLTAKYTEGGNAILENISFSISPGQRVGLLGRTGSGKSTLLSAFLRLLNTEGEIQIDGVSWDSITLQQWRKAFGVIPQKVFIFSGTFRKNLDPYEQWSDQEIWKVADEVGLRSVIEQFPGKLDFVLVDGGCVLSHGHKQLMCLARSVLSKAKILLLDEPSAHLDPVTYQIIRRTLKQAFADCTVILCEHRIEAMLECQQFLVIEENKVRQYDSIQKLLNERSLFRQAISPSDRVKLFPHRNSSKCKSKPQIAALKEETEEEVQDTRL

One assay has as its target T1, F508del (Homo sapiens, UniProt P13569, DEL508-508).
T1 construct: expressed in transfected cells
The assay can be described thus: Protocol 2: FRET membrane potential optical assay (VIPR), identification of correction compounds. It is filed as cell-based. Particulars: F508del CFTR modulator activity; compounds of Table 1; read-out: EC30. In outline:
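NIH3T3 mouse fibroblasts stably expressing F508del were treated with test compound for 16 hrs at 37° C. in serum-free medium; 27° C. incubation served as positive control. F508del was activated with 10 μM forskolin plus 20 μM genistein in Cl^−-free medium, and Cl^− efflux-driven depolarization was read by DiSBAC2(3)/CC2-DMPE FRET.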
On to `CC1CN(c2ncccc2C(=O)NS(=O)(=O)c2cccc(OC3CC=CC3)n2)C(C)(C)C1` (centres unmarked) [Compound 2317, N-[(6-cyclopent-3-en-1-yloxy-2-pyridyl)sulfonyl]-2-(2,2,4-trimethylpyrrolidin-1-yl)pyridine-3-carboxamide], for which the EC30 – broadly, the concentration at which the effect reaches the 30% level – was less than 3000 nM.

Take `Cc1ccc(F)c(-c2ccc(C(=O)NS(=O)(=O)N3CC[C@H](N)C3)c(N3C[C@@H](C)CC3(C)C)n2)c1` [Compound 2016, N-[(3S)-3-aminopyrrolidin-1-yl]sulfonyl-6-(2-fluoro-5-methyl-phenyl)-2-[(4S)-2,2,4-trimethylpyrrolidin-1-yl]pyridine-3-carboxamide]: the 30% effect concentration (EC30) lay within 3000 to 10000 nM.

As to `CC1CN(c2ncccc2C(=O)NS(=O)(=O)c2cccc(Nc3cccc(OC(F)(F)F)c3)n2)C(C)(C)C1` (centres unmarked) [Compound 2143, N—[[6-[3-(trifluoromethoxy)anilino]-2-pyridyl]sulfonyl]-2-(2,2,4-trimethylpyrrolidin-1-yl)pyridine-3-carboxamide], the EC30 was less than 3000 nM.

Consider `CCOc1ccc(CCNc2cccc(S(=O)(=O)NC(=O)c3cccnc3N3CC(C)CC3(C)C)n2)cc1` (centres unmarked) [Compound 2642, N—[[6-[2-(4-ethoxyphenyl)ethylamino]-2-pyridyl]sulfonyl]-2-(2,2,4-trimethylpyrrolidin-1-yl)pyridine-3-carboxamide], for which the 30% effect concentration (EC30) was less than 3000 nM.

In the case of `CCOC(=O)c1ccc(Nc2cccc(S(=O)(=O)NC(=O)c3cccnc3N3CC(C)CC3(C)C)n2)cc1` (centres unmarked) [Compound 2122, ethyl 4-[[6-[[2-(2,2,4-trimethylpyrrolidin-1-yl)pyridine-3-carbonyl]sulfamoyl]-2-pyridyl]amino]benzoate], the EC30 is less than 3000 nM.

Consider `Cc1cccc(-c2ccc(C(=O)NS(=O)(=O)c3cccnc3N)c(N3C[C@@H](C)CC3(C)C)n2)c1O` [Compound 2592, N-[(2-amino-3-pyridyl)sulfonyl]-6-(2-hydroxy-3-methyl-phenyl)-2-[(4S)-2,2,4-trimethylpyrrolidin-1-yl]pyridine-3-carboxamide], for which the concentration for an effect of 30% (EC30) is less than 3000 nM.

Turning to `CC(C)COc1cc(F)cc(-c2ccc(C(=O)NS(=O)(=O)c3cccc(N)n3)c(N3CC(C)CCC3C)n2)c1` (single isomer, unassigned) [Compound 2451, N-[(6-amino-2-pyridyl)sulfonyl]-2-(2,5-dimethyl-1-piperidyl)-6-(3-fluoro-5-isobutoxy-phenyl)pyridine-3-carboxamide], the EC30 was less than 3000 nM.

With `COc1cc(F)cc(-c2cnc(N3CC(C)CC3(C)C)c(C(=O)NS(=O)(=O)c3cccc(N)n3)c2)c1` (centres unmarked) [Compound 2431, N-[(6-amino-2-pyridyl)sulfonyl]-5-(3-fluoro-5-methoxy-phenyl)-2-(2,2,4-trimethylpyrrolidin-1-yl)pyridine-3-carboxamide], the EC30 is less than 3000 nM.

`COc1cc(C)cc(-c2cnc(N3CC(C)CC3(C)C)c(C(=O)NS(=O)(=O)c3cccc(N)n3)c2)c1` (centres unmarked) [Compound 2499, N-[(6-amino-2-pyridyl)sulfonyl]-5-(3-methoxy-5-methyl-phenyl)-2-(2,2,4-trimethylpyrrolidin-1-yl)pyridine-3-carboxamide]: the EC30 was less than 3000 nM.

Take `CC1CN(c2ncccc2C(=O)NS(=O)(=O)c2cccc(N3CCC4CCCCC4C3)n2)C(C)(C)C1` (centres unmarked) [Compound 2011, N—[[6-(3,4,4a,5,6,7,8,8a-octahydro-1H-isoquinolin-2-yl)-2-pyridyl]sulfonyl]-2-(2,2,4-trimethylpyrrolidin-1-yl)pyridine-3-carboxamide]: the EC30 was less than 3000 nM.

For the molecule `CC1CN(c2ncccc2C(=O)NS(=O)(=O)c2cccc(NCC3CCCO3)n2)C(C)(C)C1` (centres unmarked) [Compound 2131, N—[[6-(tetrahydrofuran-2-ylmethylamino)-2-pyridyl]sulfonyl]-2-(2,2,4-trimethylpyrrolidin-1-yl)pyridine-3-carboxamide], the EC30 was greater than 10000 nM.

For `Cc1cc(O)ccc1-c1ccc(C(=O)NS(=O)(=O)c2cccnc2N)c(N2C[C@@H](C)CC2(C)C)n1` [Compound 1999, N-[(2-amino-3-pyridyl)sulfonyl]-6-(4-hydroxy-2-methyl-phenyl)-2-[(4S)-2,2,4-trimethylpyrrolidin-1-yl]pyridine-3-carboxamide], the EC30 fell in the range of 3000 to 10000 nM.

Consider `CC1CN(c2ncccc2C(=O)NS(=O)(=O)c2cccc(N3CCCC3c3ccccc3)n2)C(C)(C)C1` (centres unmarked) [Compound 2094, N—[[6-(2-phenylpyrrolidin-1-yl)-2-pyridyl]sulfonyl]-2-(2,2,4-trimethylpyrrolidin-1-yl)pyridine-3-carboxamide], for which the EC30 is less than 3000 nM.

In the case of `Cc1cc(F)cc(-c2ccc(C(=O)NS(=O)(=O)c3ccc[nH]c3=O)c(N3C[C@@H](C)CC3(C)C)n2)c1` [Compound 2348, 6-(3-fluoro-5-methyl-phenyl)-N-[(2-oxo-1H-pyridin-3-yl)sulfonyl]-2-[(4S)-2,2,4-trimethylpyrrolidin-1-yl]pyridine-3-carboxamide], the 30% effect concentration (EC30) is less than 3000 nM.

For the molecule `C[C@@H]1CN(c2nc(-c3ccc(F)c(F)c3)ccc2C(=O)NS(=O)(=O)N2CC[C@H](N)C2)C(C)(C)C1` [Compound 2229, N-[(3S)-3-aminopyrrolidin-1-yl]sulfonyl-6-(3,4-difluorophenyl)-2-[(4S)-2,2,4-trimethylpyrrolidin-1-yl]pyridine-3-carboxamide], the concentration for an effect of 30% (EC30) lay within 3000 to 10000 nM.

On to `CC1CN(c2ncccc2C(=O)NS(=O)(=O)c2cccc(Oc3ccccc3)n2)C(C)(C)C1` (centres unmarked) [Compound 2509, N-[(6-phenoxy-2-pyridyl)sulfonyl]-2-(2,2,4-trimethylpyrrolidin-1-yl)pyridine-3-carboxamide], for which the EC30 is less than 3000 nM.

Regarding `COc1ccccc1CNc1cccc(S(=O)(=O)NC(=O)c2cccnc2N2CC(C)CC2(C)C)n1` (centres unmarked) [Compound 2310, N—[[6-[(2-methoxyphenyl)methylamino]-2-pyridyl]sulfonyl]-2-(2,2,4-trimethylpyrrolidin-1-yl)pyridine-3-carboxamide], the EC30 is less than 3000 nM.

On to `Nc1cccc(S(=O)(=O)NC(=O)c2cccnc2NC2CCCCC2C2CCCCC2)n1` (centres unmarked) [Compound 2599, N-[(6-amino-2-pyridyl)sulfonyl]-2-[(2-cyclohexylcyclohexyl)amino]pyridine-3-carboxamide], for which the EC30 fell in the range of 3000 to 10000 nM.

The same assay, now with this note: Table 3; compounds of Table 1 as modulators of CFTR activity; protocol not stated.
Regarding `Cc1cc(C)c(Oc2nc(-n3cccn3)ccc2C(=O)NS(=O)(=O)c2cccc(N)n2)c(C)c1` [Compound 564, N-[(6-amino-2-pyridyl)sulfonyl]-6-pyrazol-1-yl-2-(2,4,6-trimethylphenoxy)pyridine-3-carboxamide], the EC30 entry is “++ (“++” means between 3 uM and 10 uM)”.

Consider `Cc1cccc(-c2cc(C(=O)NS(=O)(=O)c3ccccc3)n(Cc3c(C)cccc3C)n2)c1` [Compound 202, N-(benzenesulfonyl)-2-[(2,6-dimethylphenyl)methyl]-5-(m-tolyl)pyrazole-3-carboxamide], for which the 30% effect concentration (EC30) entry was “+++ (“+++” means <3 uM)”.

`Cc1cc(C)c(Oc2nc(-c3cc(F)cc(OCC(C)C)c3)ccc2C(=O)NS(=O)(=O)c2cccc(N)n2)c(C)c1` [Compound 196, N-[(6-amino-2-pyridyl)sulfonyl]-6-(3-fluoro-5-isobutoxy-phenyl)-2-(2,4,6-trimethylphenoxy)pyridine-3-carboxamide]: the 30% effect concentration (EC30) result is listed as “+++ (“+++” means <3 uM)”.

`Cc1cc(C)c(Cn2c(C(=O)NS(=O)(=O)c3ccccc3)cc3cc(C)ccc32)c(C)c1` [Compound 248, N-(benzenesulfonyl)-5-methyl-1-[(2,4,6-trimethylphenyl)methyl]indole-2-carboxamide]: the concentration for an effect of 30% (EC30) result is listed as “+++ (“+++” means <3 uM)”.

On to `CC(C)COc1cc(F)cc(-c2ccc(C(=O)NS(=O)(=O)c3ccn[nH]3)c(N3CCC(F)(F)C3)n2)c1` [Compound 565, 2-(3,3-difluoropyrrolidin-1-yl)-6-(3-fluoro-5-isobutoxy-phenyl)-N-(1H-pyrazol-5-ylsulfonyl)pyridine-3-carboxamide], for which the 30% effect concentration (EC30) entry is given as “+ (“+” means greater than 10 uM)”.

Turning to `Cc1cc(C)c(Oc2nc(-c3cccc(F)c3)ccc2C(=O)NS(=O)(=O)c2cccc(N)n2)c(C)c1` [Compound 570, N-[(6-amino-2-pyridyl)sulfonyl]-6-(3-fluorophenyl)-2-(2,4,6-trimethylphenoxy)pyridine-3-carboxamide], the EC30 result was “+++ (“+++” means <3 uM)”.

Turning to `COc1cccc2c1cc(C(=O)NS(=O)(=O)c1ccccc1)n2Cc1c(C)cc(C)cc1C` [Compound 348, N-(benzenesulfonyl)-4-methoxy-1-[(2,4,6-trimethylphenyl)methyl]indole-2-carboxamide], the EC30 result was “+++ (“+++” means <3 uM)”.

For `Cc1cc(C)c(Cn2c(C(=O)NS(=O)(=O)c3ccncc3)cc3ccc(C)cc32)c(C)c1` [Compound 38, 6-methyl-N-(4-pyridylsulfonyl)-1-[(2,4,6-trimethylphenyl)methyl]indole-2-carboxamide], the 30% effect concentration (EC30) entry is “+++ (“+++” means <3 uM)”.

For the molecule `CCOc1cccc2c1CN(Cc1c(C)cc(C)cc1C)C2(C)C(=O)NS(=O)(=O)c1ccc[nH]c1=O` (centres unmarked) [Compound 410, 4-ethoxy-1-methyl-N-[(2-oxo-1H-pyridin-3-yl)sulfonyl]-2-[(2,4,6-trimethylphenyl)methyl]isoindoline-1-carboxamide], the EC30 entry was “+++ (“+++” means <3 uM)”.

Consider `CCCn1cc(-c2ccc(C(=O)NS(=O)(=O)c3cccc(N)n3)c(Oc3c(C)cc(C)cc3C)n2)cn1` [Compound 469, N-[(6-amino-2-pyridyl)sulfonyl]-6-(1-propylpyrazol-4-yl)-2-(2,4,6-trimethylphenoxy)pyridine-3-carboxamide], for which the EC30 result was “++ (“++” means between 3 uM and 10 uM)”.

With `Cc1cc(C)c(Cn2nc(C(C)(C)C)cc2C(=O)NS(=O)(=O)c2ccccc2C#N)c(C)c1` [Compound 266, 5-tert-butyl-N-(2-cyanophenyl)sulfonyl-2-[(2,4,6-trimethylphenyl)methyl]pyrazole-3-carboxamide], the EC30 result is reported as “+++ (“+++” means <3 uM)”.
